According to patent publication US20240002424A1, “HEXOSAMINE COMPOUNDS AND METHODS THEREOF” (National Institute of Immunology, priority 2021, published 2024):

Columns and labels:
Format in all cases: cell-based, human
Jurkat cells = assay: NeuAz expression on the cell surface by SPAAC with DBCO-Cy5 and flow cytometry, competition with Ac4ManNAz (1c); conditions: for NeuAz expression upon co-incubation with Ac4ManNAz: Ac4ManNAz (Z) 50 μM plus analogue at 10, 25, 50 μM; for NeuAz expression upon co-incubation with Ac4ManNAz / reduction in NeuAz expression upon co-incubation: 24 h; for reduction in NeuAz expression upon co-incubation: 0-50 μM with 1c 50 μM, simultaneous addition
Description: FIG. 5 illustrates competitive processing by compounds of the present invention (ManNAc compounds). ManNAc compounds competitively reduce the expression of N-azidoacetyl-D-neuraminic acid (NeuAz)-carrying sialoglycans through the metabolic processing of Ac4ManNAz. Jurkat (human T-lymphoma) cells were incubated with Ac4ManNAz (Z) (50 μM) alone, co-incubated with GL-2, GL-3, MA-2, or MA-3 (at various concentrations such as 10,
25, and 50 μM) for 24 h. Expression of N-azidoacetyl-D-neuraminic acid (NeuAz) on the cell surface sialoglycans was estimated using strain-promoted azide-alkyne cycloaddition (SPAAC) with DBCO-Cy5 and analyzed by flow cytometry. […] GL-2 was used for comparative study and the structure of this compound is as below.
Jurkat cells (3.0×10^5 cells/mL; 2.5 mL per well in 6-well plates) in complete medium were treated with either vehicle (D) or Compound 1c; Untreated Jurkat cells, without addition of vehicle, were also included as additional controls. Cells were harvested at 48 h, washed thrice with PBS (3×0.5 mL) (3000×g, 2.0 min). Prior to the last wash cells were counted and were aliquoted to 1.0×10^6 cells per sample in 1.5 mL microcentrifuge tubes and centrifuged. The cells were gently resuspended in PBS ([…]) and treated with DBCO-Cy5 ([…]) and incubated at 37° C. (on a Torrey-Pines dry heating bath with mild shaking). After one hour, the cells were washed using FSB (0.5 mL, 3000×g, 2.0 min, room temperature), resuspended in PBS (250 mL), treated with PI (2.5 mg/mL), and analyzed using BD FACSCanto and FACSDiva Version 6.1.3. The cells were gated for PI-negative population for 10,000 events. Two replicate samples were prepared for each conditions and each sample was counted twice.
Estimation of NeuAz expression by 1c in the presence of peracetylated ManNAc analogues: Jurkat cells (3.0×10^5 cells/mL in 3.0 mL per well in 6-well plates) were incubated with (i) D, (ii) 1a, 1b, 1c, or 1d alone (50 mM) or (iii) 1a, 1b, or 1d (50 mM) in combination with 1c (50 mM). After 24 h, cells were harvested, washed using FSB, aliquoted to 5.0×10^5 cells per sample, and processed as mentioned above for estimation of NeuAz expression using DBCO-Cy5 ([…]). Experiments using HL-60 cells were performed using the same procedure. […]
Effect of GlcNAc and ManNAc analogues on NeuAz expression: Jurkat cells were treated with 1a, 1b, 2a, or 2b (10, 25, and 50 mM for each analogue) in combination with 1c (50 mM). Cells treated with 1c (50 mM) alone were considered as a reference. After 24 h, cells were harvested, processed, labelled with DBCO-Cy5 ([…]), and analysed by flow cytometry as mentioned above.
In order to evaluate the metabolism, Jurkat (human T-lymphoma) cells were selected and incubated with ManNAc analogues either alone (50 μM) or in combination with 1c (50 μM) for 48 h. Expression of NeuAz on cell surface was estimated by flow cytometry through the copper-free bio-orthogonal strain-promoted azide-alkyne cycloaddition (SPAAC) reaction using dibenzocyclooctyne-Cy5 (DBCO-Cy5). The conditions for click reaction were optimized for various concentrations of DBCO-Cy5 and time course of SPAAC reaction in Jurkat cells. Based on the optimization results, incubation time of 30 min at 37° C. for 5.0×10^5 cells (pre-incubated with 1c for 48 h) with 20 μM of DBCO-Cy5 in 100 μL total volume for experiments with ManNAc analogues was chosen. […] In order to test the dose-dependency of this inhibitory effect on NeuAz expression and to establish competitive metabolic processing, Jurkat cells were first treated with either 1a or 1b (0-50 μM) followed by addition of 1c (50 μM) at 12 h and estimation of NeuAz at 48 h. As expected, the suppression of NeuAz expression was substantially higher when added with a 12 h delay compared to simultaneous addition, in a dose-dependent manner. […] By contrast simultaneous addition resulted only in a 10% reduction of NeuAz for both 1a and 1b (FIG. 6C and FIG. 7B).

HL-60 cells [1] = assay: Cell surface sialyl-Lewis-X (CD15s) by anti-CD15s (CSLEX1) flow cytometry; conditions: 50 μM, 24 h
Description: Effect of ManNAc analogues on the expression of sialyl-Lewis-X and Lewis-X: HL-60 cells (3.0×10^5 cells/mL in 2.0 mL complete medium in 6 well plate) were treated with D (vehicle), 1a, 1b, 1c, 1d, 1e, 1f, or 1g (50 PM), along with untreated (U) control. After 24 h, cells were harvested and washed with PBS (3×0.5 mL, 3000×g, 3.0 min at room temperature). Prior to last wash, cells were counted using Z2 coulter counter and aliquoted at 2.5×10^5 cells per sample and stained with either mouse anti-human CD15s (CSLEX1) (1.25 μg/mL) or mouse anti-human CD15 (HI98) (2.5 μg/mL) in HEPES/CaCl2) buffer (30 mM HEPES, 110 mM NaCl, 10 mM KCl, 2 mM MgCl2, 10 mM glucose, 1.5 mM CaCl2) containing 0.1% bovine serum albumin, pH 7.3) (total volume of 100 μL) for 30 min at 4° C. Cells were washed with HEPES/CaCl2 buffer (2×0.5 mL) and stained with AlexaFluor488-conjugated anti-mouse IgM (2.5 μg/mL) (for both CD15s and CD15) in 100 μL HEPES/CaCl2 for 30 min at 4° C. Cells were washed with HEPES/CaCl2 buffer (2×0.5 mL), resuspended in PBS (0.2 mL), treated with PI (2.5 μg/ml) and analysed by BD FACSVerse. Samples treated with (i) isotype antibodies followed by secondary antibody and (ii) secondary antibody alone were prepared as controls. Single Cells were gated for PI-negative population for 10,000 events and analysed by flow cytometry. Two replicate samples were prepared for each condition and each sample was counted twice. Three independent experiments were performed. Data was analysed using FlowJo V10. For plotting graph and calculation of significant probability ‘p’ values, two-way ANOVA with Dunnett's multiple comparison tests was employed in GraphPad Prism 8.
Time course of CD15s expression: HL-60 cells (3.0×10^5 cells/mL in 2.5 mL complete medium in 6-well plates) were incubated with D, 1a, 1b, or 1d (50 mM). At each time point, from day 1 to day 6, the cells were harvested from the entire contents of the well, washed, and aliquoted to 5.0×10^5 cells per sample, and immuno-stained using anti-CD15s (CSLEX1) antibody as mentioned above. On day 3, 4, and 5 complete media (1.0 mL) was added to each remaining well in order to compensate for media exhaustion. No contents were removed from the well during the period.

HL-60 cells [2] = assay: Cell density as a measure of proliferation/cytotoxicity; conditions: 100 μM, cell density measured at 24, 48, and 72 h
HL-60 cells [3] = assay: Total and glycoside bound sialic acids by periodate-resorcinol assay; conditions: 100 μM, 48 h
Description: Total sialic acids were measured following reported procedures. HL-60 cells (3.0×10^5 cells/mL in 10 mL complete medium in 10 cm diameter Petri dishes) were incubated with D, 1a, 1b, 1c, 1d, 1e, 1f, 1g, 2a, or 2b (100 mM each), along with untreated (U) controls. After 48 h, cells were harvested, washed with PBS (3×5.0 mL; 3000×g, for 2.0 min), aliquoted to 2×10^6 cells per sample and resuspended in PBS (150 mL) in 1.5 mL microcentrifuge tubes. Cells were lyzed by three freeze-thaw cycles and the total lysates were subjected to periodate-resorcinol assay. Briefly, lysates (150 mL) were treated with 0.4 M aqueous periodic acid (6.67 mM) or (2.5 mL) and incubated either on ice for 15 min (for measurement of total sialic acids) or at 37° C. for 1.0 h (for measurement of glycoconjugate bound sialic acids). About 10 mL of reagent cocktail was prepared using 6% w/v of aqueous resorcinol (1.0 mL), 2.5 mM copper (II) sulfate (1.0 mL), 44% of concentrated hydrochloric acid (4.4 mL), and water (3.6 mL). The mixture was then treated with the reagent cocktail (250 mL per sample), boiled at 100° C. for 10 min, rapidly quenched in an ice-bath and treated with tert-butanol (250 mL). The contents were centrifuged and the supernatants were aliquoted (200 mL) into 96-well plates and the absorbance at 630 nm was measured. At least three replicates were prepared for each condition.

HL-60 cells [4] = assay: NeuAz expression by SPAAC with DBCO-Cy5 and flow cytometry, competition with 1c; conditions: 50 μM with 1c 50 μM, 24 h
Description: Estimation of NeuAz expression by 1c in the presence of peracetylated ManNAc analogues: Jurkat cells (3.0×10^5 cells/mL in 3.0 mL per well in 6-well plates) were incubated with (i) D, (ii) 1a, 1b, 1c, or 1d alone (50 mM) or (iii) 1a, 1b, or 1d (50 mM) in combination with 1c (50 mM). After 24 h, cells were harvested, washed using FSB, aliquoted to 5.0×10^5 cells per sample, and processed as mentioned above for estimation of NeuAz expression using DBCO-Cy5 ([…]). Experiments using HL-60 cells were performed using the same procedure.
Having confirmed metabolic acceptability in Jurkat cells, the compounds were tested on HL-60 (human acute myeloid leukemia) cells which are a reliable model for neutrophil adhesion. The effect on competitive suppression of NeuAz expression was studied using 1c as a reporter. HL-60 cells were treated with 1c either alone (50 μM) or in combination with ManNAc analogues (50 μM), including the straight chain derivatives, for 24 h followed by DBCO-Cy5 ligation. […] The decreasing ability of linear alkyl moieties (1d-1g), as a function of chain length, for suppression of NeuAz expression is in contrast to the cycloalkyl moieties. […] Similarly, 1a induced a reduction of 40% compared to only a 15% reduction by 1f.

| SMILES | NeuAz expression upon co-incubation with Ac4ManNAz (Jurkat cells) | increase in binding of CSLEX1 antibody (sLeX) compared to controls (HL-60 cells [1]) | decrease in cell density (HL-60 cells [2]) | glycoside bound sialic acid levels (in words) (HL-60 cells [3]) | ratio of total sialic acids to glycoside bound sialic acids vs untreated cells (HL-60 cells [3]) | total sialic acid levels (in words) (HL-60 cells [3]) | reduction in NeuAz expression upon co-incubation (Jurkat cells) | further results |
| --- | --- | --- | --- | --- | --- | --- | --- | --- |
| CC(=O)OC[C@H]1OC(OC(C)=O)[C@@H](NC(=O)C2CCC2)[C@@H](OC(C)=O)[C@@H]1OC(C)=O (mixture of isomers) [Compound 1b, (3S,4R,5S,6R)-6-(acetoxymethyl)-3-(cyclobutanecarboxamido)tetrahydro-2H-pyran-2,4,5-triyl triacetate] | reduced competitively in a dose-dependent manner |  |  |  |  |  |  |  |
| CC(=O)OC[C@H]1OC(OC(C)=O)[C@H](NC(=O)C2CCC2)[C@@H](OC(C)=O)[C@@H]1OC(C)=O (mixture of isomers) [Compound 2b, (3R,4R,5S,6R)-6-(acetoxymethyl)-3-(cyclobutanecarboxamido)tetrahydro-2H-pyran-2,4,5-triyl triacetate] | not |  |  |  |  |  |  |  |
| CC(=O)OC[C@H]1O[C@H](OC(C)=O)[C@@H](NC(=O)CN=[N+]=[N-])[C@@H](OC(C)=O)[C@@H]1OC(C)=O [Compound 1c, 1,3,4,6-tetra-O-acetyl-2-azidoacetylamino-2-deoxy-α-D-mannopyranose] |  | 1.4 fold | ~10% | comparable to untreated cells |  |  |  | NeuAz expression / DBCO-Cy5 signal, compound alone (Jurkat cells; 50 μM alone, 48 h): robust expression of NeuAz |
| CCC(=O)N[C@@H]1[C@@H](OC(C)=O)O[C@H](COC(C)=O)[C@@H](OC(C)=O)[C@@H]1OC(C)=O [Compound 1e, 1,3,4,6-tetra-O-acetyl-2-(1-propanoyl)amino-2-deoxy-α-D-mannopyranose] |  | ~2.5 fold |  |  | higher ratios of free sialic acid |  |  | increase in glycoside bound sialic acid levels (HL-60 cells [3]): ~10%; increase in total sialic acid levels vs untreated cells (HL-60 cells [3]): 2.3 fold; NeuAz expression with respect to 1c alone (100%) (HL-60 cells [4]): 65%; suppression of NeuAz expression (in words) (HL-60 cells [4]): significant suppression |
| CC(=O)OC[C@H]1O[C@@H](OC(C)=O)[C@H](NC(=O)C2CC2)[C@@H](OC(C)=O)[C@@H]1OC(C)=O [Compound 2a, 1,3,4,6-tetra-O-acetyl-2-cyclopropanoylamino-2-deoxy-β-D-glucopyranose] | not |  | ~10% | comparable to untreated cells | lower ratios | comparable to untreated cells | negligible reduction |  |
| CC(=O)OC[C@H]1OC(OC(C)=O)[C@H](NC(=O)C2CCC2)[C@@H](OC(C)=O)[C@@H]1OC(C)=O (stereo partly drawn) [Compound 2b, (3R,4R,5S,6R)-6-(acetoxymethyl)-3-(cyclobutanecarboxamido)tetrahydro-2H-pyran-2,4,5-triyl triacetate] |  |  | ~10% | comparable to untreated cells | lower ratios | comparable to untreated cells | negligible reduction |  |
